Assay results reported in patent US12414978B2, “Tyrosine inhibitors with immunosuppressive activity in human neonatal keratinocyte progenitors” (ESCAPE THERAPEUTICS, INC., priority 2019, dated 2025).
Square brackets hold non-standard residues; d marks the D form. Ends that are not written are not given here. Peptide text beside a SMILES is read from it. * marks the point of attachment. Palmitoyl = CCCCCCCCCCCCCCCC(=O)*

Legend:
[1] = tested on: human epidermal progenitors; test: MTT cell proliferation, epidermal progenitors; type: cell-based
Protocol: Proliferation rates were determined using a TACS® MTT Cell Proliferation Kit (R&D systems, Minneapolis, MN). Cells were seeded at 2.5×10^4 per well in 96-well plates in a humidified atmosphere with 5 percent CO2 at 37 degrees Celsius. Twenty-four hours later, decapeptide-12 or oxyresveratrol were added to the corresponding wells at varying concentrations (0, 3, 10, 30, 100, 300, and 1000 micromolar), and cultures were then incubated for 72 hours. The remainder of the procedure was performed following the manufacturer's protocol.
(§1) Proliferation rates for three human cell lines (epidermal progenitors, melanoblasts, and fibroblasts) were determined using a TACS® MTT Cell Proliferation Kit. Cells were seeded at 2.5×10^4 per well in 96-well plates in a humidified atmosphere with 5 percent CO2 at 37 degrees Celsius. Twenty-four hours later, the decapeptides were added to the corresponding wells at varying concentrations and incubated for 72 hours. The remainder of the procedure was performed following the manufacturer's protocol.

melanoblasts [2] = test: MTT cell proliferation, melanoblasts; type: cell-based, human
Protocol: as §1

fibroblasts [3] = test: MTT cell proliferation, fibroblasts; type: cell-based, human
Protocol: as §1

epidermal progenitors = test: Trypan blue cell viability after 7 days, epidermal progenitors; type: cell-based, human; settings: relative to control (untreated cells)
Protocol: (§2) The effect of each of the decapeptides upon cell viability was also tested. In particular, cells were incubated with the decapeptide at various concentrations and then counted for viability relative to the control (untreated cells) using trypan blue. Cytotoxicity was measured according to the following formula: [1−(# of cells in control−# of live cells in test sample)/# of cells in control]×100 percent.

melanoblasts [4] = test: Trypan blue cell viability after 7 days, melanoblasts; type: cell-based, human; settings: relative to control (untreated cells)
Protocol: as §2

fibroblasts [5] = test: Trypan blue cell viability after 7 days, fibroblasts; type: cell-based, human; settings: 50 μM, relative to control (untreated cells)
Protocol: as §2

PHA-stimulated PBMC [6] = test: PHA-stimulated PBMC proliferation; type: cell-based, human; settings: PHA 72 hours
Protocol: (§3) Cryopreserved human PBMCs were purchased from Astarte Biologics (Redmond, Washington, USA), activated with phytohemagglutinin (PHA), and proliferation assessed. Interleukin (IL)-2 activated human NK cell cytotoxic killing of human K562 cells was assessed using a CytoTox96 non-radioactive cytotoxicity assay kit (Promega). Protease inhibitor was added to the media to prevent degradation of decapeptide-12.
(§4) Three independent trials were performed for each experiment. Microsoft Excel (Seattle, Washington) was used to calculate means and standard errors and statistical significance was determined using unpaired analysis of variance or two-tailed student T-test. P values <0.05 were taken to be statistically significant.
The effects of decapeptide-12 and oxyresveratrol on PBMC proliferation rates after exposure to PHA for 72 hours, were explored.

[7] = tested on: IL-2 activated human NK cell cytotoxic killing of human K562 cells; test: NK cytotoxic killing of K562 cells (CytoTox96); type: cell-based
Protocol: as §3, §4
The impact of decapeptide-12 on IL-2 primed NK-mediated cytotoxic killing of K562 cells, was also assessed.

PHA-stimulated PBMC [8] = settings: 0.1 millimolar; cited from earlier work

Row | Compound | epidermal progenitor proliferation rate after 72 hours ([1]; 3 μM) | epidermal progenitor proliferation rate after 72 hours ([1]; 10 μM) | epidermal progenitor proliferation rate after 72 hours ([1]; 30 μM) | epidermal progenitor proliferation rate after 72 hours ([1]; 50 μM) | epidermal progenitor proliferation rate after 72 hours ([1]; 100 μM) | epidermal progenitor proliferation rate after 72 hours ([1]; 300 μM) | epidermal progenitor proliferation rate after 72 hours ([1]; 500 μM) | epidermal progenitor proliferation rate after 72 hours ([1]; 1000 μM) | melanoblast proliferation rate after 72 hours (melanoblasts [2]; 3 μM) | melanoblast proliferation rate after 72 hours (melanoblasts [2]; 10 μM) | melanoblast proliferation rate after 72 hours (melanoblasts [2]; 30 μM) | melanoblast proliferation rate after 72 hours (melanoblasts [2]; 50 μM) | melanoblast proliferation rate after 72 hours (melanoblasts [2]; 100 μM) | melanoblast proliferation rate after 72 hours (melanoblasts [2]; 300 μM) | melanoblast proliferation rate after 72 hours (melanoblasts [2]; 500 μM) | melanoblast proliferation rate after 72 hours (melanoblasts [2]; 1000 μM) | fibroblast proliferation rate after 72 hours (fibroblasts [3]; 3 μM) | fibroblast proliferation rate after 72 hours (fibroblasts [3]; 10 μM) | fibroblast proliferation rate after 72 hours (fibroblasts [3]; 30 μM) | epidermal progenitor viability after 7 days (epidermal progenitors; 10 μM) | further results
1 | CCCCCCCCCCCCCCCC(=O)N[C@@H](Cc1ccc(O)cc1)C(=O)N[C@@H](CCCNC(=N)N)C(=O)N[C@@H](CO)C(=O)N[C@@H](CCCNC(=N)N)C(=O)N[C@@H](CCCCN)C(=O)N[C@@H](Cc1ccc(O)cc1)C(=O)N[C@@H](CO)C(=O)N[C@@H](CO)C(=O)N[C@@H](Cc1c[nH]c2ccccc12)C(=O)N[C@@H](Cc1ccc(O)cc1)C(N)=O [P4A, Palmitoyl-YRSRKYSSWY-amide] (Palmitoyl-YRSRKYSSWY-NH2) | 99 ± 1% | 99 ± 1% | 98 ± 1% | 97 ± 1% | 97 ± 2% | 96 ± 2% | 96 ± 2% | 94 ± 2% | 100% | 100% | 99 ± 1% | 98 ± 1% | 97 ± 2% | 97 ± 2% | 96 ± 2% | 95 ± 2% | 100% | 99 ± 1% | 98 ± 1% | 99 ± 1% | fibroblast proliferation rate after 72 hours (fibroblasts [3]; 50 μM): 98 ± 1%; fibroblast proliferation rate after 72 hours (fibroblasts [3]; 100 μM): 97 ± 2%; fibroblast proliferation rate after 72 hours (fibroblasts [3]; 300 μM): 97 ± 2%; fibroblast proliferation rate after 72 hours (fibroblasts [3]; 500 μM): 96 ± 2%; fibroblast proliferation rate after 72 hours (fibroblasts [3]; 1000 μM): 95 ± 2%; melanoblast viability after 7 days (melanoblasts [4]; 10 μM): 99 ± 1%; melanoblast viability after 7 days (melanoblasts [4]; 50 μM): 98 ± 1%; melanoblast viability after 7 days (melanoblasts [4]; 100 μM): 97 ± 2%; fibroblast viability after 7 days (fibroblasts [5]): 98 ± 1%
2 | YRSRKYSSWY [P4, YRSRKYSSWY] | – | – | – | – | – | – | – | – | – | – | – | – | – | – | – | – | – | – | – | 99 ± 1% | melanoblast viability after 7 days (melanoblasts [4]; 10 μM): 99 ± 1%; melanoblast viability after 7 days (melanoblasts [4]; 50 μM): 98 ± 1%; melanoblast viability after 7 days (melanoblasts [4]; 1000 μM): 94 ± 2%
3 | Oc1cc(O)cc(/C=C/c2ccc(O)cc2O)c1 [oxyresveratrol] | – | – | – | – | – | – | – | – | – | – | – | – | – | – | – | – | – | – | – | – | reduction in proliferation ([1]; 1 millimolar (1000 micromolar), 72 hours, epidermal progenitors): 12±2%; reduction of PHA-stimulated PBMC proliferation (PHA-stimulated PBMC [6]; 0.1 millimolar): 35.3±1.8%; reduction of PHA-stimulated PBMC proliferation (PHA-stimulated PBMC [6]; 0.3 millimolar): progressively less inhibition; reduction of PHA-stimulated PBMC proliferation (PHA-stimulated PBMC [6]; 1 millimolar): progressively less inhibition; reduction of PHA-stimulated PBMC proliferation (PHA-stimulated PBMC [6]; 3 millimolar): 14.7±3.4%; reduction of NK killing of K562 cells ([7]; 0.1 millimolar, E:T ratio 10:1): 88.7±1.8%; reduction of NK killing of K562 cells ([7]; 0.1 millimolar, E:T ratio 30:1): 72.8±1.9%; reduction of NK killing of K562 cells ([7]; 0.3 millimolar, E:T ratio 10:1): 86.1±0.9%; reduction of NK killing of K562 cells ([7]; 0.3 millimolar, E:T ratio 30:1): 64.0±3.4%
4 | Ac-YRSRKYSSWY-NH2 [P4C, Acetyl-YRSRKYSSWY-amide] | 99 ± 1% | 99 ± 1% | 98 ± 1% | 98 ± 1% | 97 ± 1% | 97 ± 1% | 96 ± 2% | 96 ± 2% | 100% | 100% | 99 ± 1% | 98 ± 1% | 97 ± 2% | 96 ± 3% | 95 ± 2% | 95 ± 2% | 100% | 99 ± 1% | 99 ± 1% | 99 ± 1% | fibroblast proliferation rate after 72 hours (fibroblasts [3]; 50 μM): 99 ± 1%; fibroblast proliferation rate after 72 hours (fibroblasts [3]; 100 μM): 98 ± 2%; fibroblast proliferation rate after 72 hours (fibroblasts [3]; 300 μM): 97 ± 2%; fibroblast proliferation rate after 72 hours (fibroblasts [3]; 500 μM): 96 ± 2%; fibroblast proliferation rate after 72 hours (fibroblasts [3]; 1000 μM): 96 ± 2%; epidermal progenitor viability after 7 days (epidermal progenitors; 30 μM): 98 ± 1%; epidermal progenitor viability after 7 days (epidermal progenitors; 1000 μM): 94 ± 3%; melanoblast viability after 7 days (melanoblasts [4]; 10 μM): 99 ± 1%; melanoblast viability after 7 days (melanoblasts [4]; 100 μM): 97 ± 2%; melanoblast viability after 7 days (melanoblasts [4]; 300 μM): 96 ± 3%
5 | CCCCCCCCCCCCCCCC(=O)N[C@@H](Cc1ccc(O)cc1)C(=O)N[C@@H](CCCNC(=N)N)C(=O)N[C@@H](CO)C(=O)N[C@@H](CCCNC(=N)N)C(=O)N[C@@H](CCCCN)C(=O)N[C@H](Cc1ccc(O)cc1)C(=O)N[C@@H](CO)C(=O)N[C@@H](CO)C(=O)N[C@@H](Cc1c[nH]c2ccccc12)C(=O)N[C@@H](Cc1ccc(O)cc1)C(N)=O [P4B, Palmitoyl-YRSRK[*Y]SSWY-amide] (Palmitoyl-YRSRK[dY]SSWY-NH2) | 99 ± 1% | 99 ± 1% | 98 ± 1% | 98 ± 1% | 97 ± 1% | 97 ± 1% | 95 ± 2% | 94 ± 2% | 100% | 100% | 99 ± 1% | 98 ± 1% | 97 ± 2% | 96 ± 2% | 95 ± 2% | 94 ± 2% | 100% | 99 ± 1% | 99 ± 1% | 99 ± 1% | fibroblast proliferation rate after 72 hours (fibroblasts [3]; 50 μM): 99 ± 1%; fibroblast proliferation rate after 72 hours (fibroblasts [3]; 100 μM): 98 ± 2%; fibroblast proliferation rate after 72 hours (fibroblasts [3]; 300 μM): 97 ± 2%; fibroblast proliferation rate after 72 hours (fibroblasts [3]; 500 μM): 96 ± 2%; fibroblast proliferation rate after 72 hours (fibroblasts [3]; 1000 μM): 96 ± 2%; epidermal progenitor viability after 7 days (epidermal progenitors; 50 μM): 98 ± 1%; epidermal progenitor viability after 7 days (epidermal progenitors; 100 μM): 97 ± 1%
6 | Oc1ccc(C=Cc2cc(O)cc(O)c2)cc1 [resveratrol] | – | – | – | – | – | – | – | – | – | – | – | – | – | – | – | – | – | – | – | – | inhibition of PHA-induced proliferation (PHA-stimulated PBMC [8]): inhibits
